Assay results taken from patent publication US11535643B2, “Macrolides with modified desosamine sugars and uses thereof” (President and Fellows of Harvard College, priority 2015, dated 2022).
In brackets after ≈: the same amount, converted by molar mass. Read-outs that look alike come from different tables or passages of the source.

Assays:
[1] = from C=CCOC(=O)NC[C@@H]1C[C@H](N(C)C)[C@@H](OC(=O)OC)[C@H](O[C@H]([C@@H](C)C2=C(C)C(=O)OC(C)(C)O2)[C@@](C)(C[C@@H](C)CN[C@H](C)[C@H]2N(CCCCN=[N+]=[N-])C(=O)O[C@]2(C)[C@H](O)CC)OC)O1; ester bond; chlorobenzene; 1.0 mM; 150.0 °C; 16.0 h
[2] = system: E. faecalis; test: Broth dilution MIC determination (CLSI) against E. faecalis strains; type: cell-based; conditions: for MIC: Enterococcus faecalis
How it was run: (§1)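 Strains, including multidrug-resistant and macrolide-resistant ones, were exposed to macrolides in broth dilution per CLSI standards, and the lowest inhibiting concentration was recorded as MIC. Azithromycin and solithromycin were run alongside.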

[3] = system: E. coli; test: Broth dilution MIC determination (CLSI) against E. coli strains; type: cell-based; conditions: for MIC: Escherichia coli
How it was run: as §1

[4] = system: S. aureus; test: Broth dilution MIC determination (CLSI) against S. aureus strains; type: cell-based; conditions: for MIC: Staphylococcus aureus
How it was run: as §1

[5] = system: K. pneumoniae; test: Broth dilution MIC determination (CLSI) against K. pneumoniae strains; type: cell-based; conditions: for MIC: Klebsiella pneumoniae
How it was run: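 Azithromycin and solithromycin served as controls; MICs were obtained by standard CLSI broth dilution on a strain panel including multidrug-resistant and macrolide-resistant isolates.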

[6] = system: P. aeruginosa; test: Broth dilution MIC determination (CLSI) against P. aeruginosa strains; type: cell-based; conditions: for MIC: Pseudomonas aeruginosa
How it was run: as §1

[7] = system: S. pyogenes; test: Broth dilution MIC determination (CLSI) against S. pyogenes strains; type: cell-based; conditions: for MIC: Streptococcus pyogenes
How it was run: as §1

[8] = system: A. baumannii; test: Broth dilution MIC determination (CLSI) against A. baumannii strains; type: cell-based; conditions: for MIC: Acinetobacter baumannii
How it was run: as §1

[9] = system: S. pneumoniae; test: Broth dilution MIC determination (CLSI) against S. pneumoniae strains; type: cell-based; conditions: for MIC: Streptococcus pneumoniae
How it was run: as §1

[10] = system: H. influenzae; test: Broth dilution MIC determination (CLSI) against H. influenzae strains; type: cell-based; conditions: for MIC: Haemophilus influenzae
How it was run: as §1

[11] = ATCC29212, ATCC29212, read-out: MIC E. faecalis ATCC29212
[12] = Vancomycin-resistant, read-out: MIC E. faecalis Vancomycin-resistant
[13] = ATCC25922, ATCC25922, read-out: MIC E. coli ATCC25922
[14] = read-out: MIC E. coli NDM-1, NDM-1
[15] = ATCC29213, ATCC29213, read-out: MIC S. aureus ATCC29213
[16] = MRSA / USA100, MRSA: USA100, read-out: MIC S. aureus MRSA: USA100
[17] = MRSA / USA300, MRSA: USA300, read-out: MIC S. aureus MRSA: USA300
[18] = USA600, USA600, GISA, read-out: MIC S. aureus USA600, GISA
[19] = read-out: MIC S. aureus erm A genotype
[20] = ATCC10031, ATCC10031, read-out: MIC K. pneumoniae ATCC10031
[21] = KPC-2, read-out: MIC K. pneumoniae KPC-2
[22] = ATCC27853, read-out: MIC P. aeruginosa ATCC27853
[23] = ATCC19615, ATCC19615, read-out: MIC S. pyogenes ATCC19615
[24] = macrolide-resistant, read-out: MIC S. pyogenes macrolide-resistant
[25] = ATCC19606, ATCC19606, read-out: MIC A. baumannii ATCC19606
[26] = imipenem-resistant, read-out: MIC A. baumannii imipenem-resistant
[27] = ATCC49619, ATCC49619, read-out: MIC S. pneumoniae ATCC49619
[28] = erm B + mef A genotype, read-out: MIC S. pneumoniae erm B + mef A genotype
[29] = erm B + tet(M, O) genotype, read-out: MIC S. pneumoniae erm B + tet(M, O) genotype
[30] = read-out: MIC S. pneumoniae mef A genotype, mef A genotype
[31] = read-out: MIC S. pneumoniae mef A genotype, mef A genotype, first of two such columns (c3)
[32] = ATCC49247, ATCC49247, read-out: MIC H. influenzae ATCC49247
[33] = erythro > 4, azithro 1, read-out: MIC H. influenzae erythro > 4, azithro 1

SMILES: C=CCOC(=O)NC[C@@H]1C[C@H](N(C)C)[C@@H](OC(=O)OC)[C@H](O[C@@H]2[C@@H](C)C(=O)[C@@H](C)C(=O)O[C@H](CC)[C@@]3(C)OC(=O)N(CCCCN=[N+]=[N-])[C@@H]3[C@@H](C)NC[C@H](C)C[C@@]2(C)OC)O1
- ring closure, yield of all isomers [1]: 70%

SMILES: CC[C@H]1OC(=O)[C@H](C)C(=O)[C@H](C)[C@@H](O[C@@H]2OC(CNC(=O)CN)CC(N(C)C)C2O)[C@](C)(OC)C[C@@H](C)CN[C@H](C)[C@H]2N(CCCCn3cc(-c4cccc(N)c4)nn3)C(=O)O[C@]12C (stereo partly shown) [FSM-21878]
- MIC [2, 11]: 16 µg/mL (≈ 17.8 µM)
- MIC [2, 12]: > 32 µg/mL
- MIC [3, 13]: > 32 µg/mL
- MIC [3, 14]: > 32 µg/mL
- MIC [4, 15]: 32 µg/mL (≈ 35.6 µM)
- MIC [4, 16]: > 32 µg/mL
- MIC [4, 17]: > 32 µg/mL
- MIC [4, 18]: > 32 µg/mL
- MIC [4, 19]: > 32 µg/mL
- MIC [5, 20]: 16 µg/mL (≈ 17.8 µM)
- MIC [5, 21]: > 32 µg/mL
- MIC [6, 22]: > 32 µg/mL
- MIC [7, 23]: < 0.0313 µg/mL
- MIC [7, 24]: 4 µg/mL (≈ 4.44 µM)
- MIC [8, 25]: > 32 µg/mL
- MIC [8, 26]: > 32 µg/mL
- MIC [9, 27]: < 0.0313 µg/mL
- MIC [9, 28]: 4 µg/mL
- MIC [9, 29]: < 0.0313 µg/mL
- MIC [9, 30]: 8 µg/mL (≈ 8.89 µM)
- MIC [9, 31]: 0.5 µg/mL (≈ 0.555 µM)
- MIC [10, 32]: > 32 µg/mL
- MIC [10, 33]: 32 µg/mL (≈ 35.6 µM)

SMILES: CC[C@H]1OC(=O)[C@H](C)C(=O)[C@H](C)[C@@H](O[C@@H]2OC(Cn3cc(-c4ccccn4)nn3)CC(N(C)C)C2O)[C@](C)(OC)C[C@@H](C)CN[C@H](C)[C@H]2N(CCCCn3cc(-c4cccc(N)c4)nn3)C(=O)O[C@]12C (stereo partly shown) [FSM-22366]
- MIC E. faecalis ATCC29212 ([2]; ATCC29212): 2 µg/mL (≈ 2.06 µM)
- MIC E. faecalis Vancomycin-resistant ([2]; Vancomycin-resistant): >32 µg/mL
- MIC E. coli ATCC25922 ([3]; ATCC25922): >32 µg/mL
- MIC E. coli CTX-M-14 ([3]; CTX-M-14): >32 µg/mL
- MIC E. coli NDM-1 ([3]; NDM-1): >32 µg/mL
- MIC E. coli TEM-1 ([3]; TEM-1): 16 µg/mL (≈ 16.5 µM)
- MIC S. aureus ATCC29213 ([4]; ATCC29213): 32 µg/mL (≈ 32.9 µM)
- MIC S. aureus MRSA: USA100 ([4]; MRSA: USA100): >32 µg/mL
- MIC S. aureus MRSA: USA300 ([4]; MRSA: USA300): >32 µg/mL
- MIC S. aureus USA600, GISA ([4]; USA600, GISA): >32 µg/mL
- MIC S. aureus erm A genotype ([4]; erm A genotype): >32 µg/mL
- MIC K. pneumoniae ATCC10031 ([5]; ATCC10031): 16 µg/mL (≈ 16.5 µM)
- MIC K. pneumoniae KPC-2 ([5]; KPC-2): >32 µg/mL
- MIC K. pneumoniae SHV-12 ([5]; SHV-12): >32 µg/mL
- MIC K. pneumoniae TEM-10 ([5]; TEM-10): 32 µg/mL (≈ 32.9 µM)
- MIC P. aeruginosa ATCC27853 ([6]; ATCC27853): >32 µg/mL
- MIC P. aeruginosa HPA101-1477 ([6]; HPA101-1477): >32 µg/mL
- MIC S. pyogenes ATCC19615 ([7]; ATCC19615): <0.03125 µg/mL
- MIC S. pyogenes macrolide-resistant ([7]; macrolide-resistant): 1 µg/mL (≈ 1.03 µM)
- MIC A. baumannii ATCC19606 ([8]; ATCC19606): >32 µg/mL
- MIC A. baumannii IMP-4 ([8]; IMP-4): >32 µg/mL
- MIC A. baumannii chromosomal class C ([8]; chromosomal class C): >32 µg/mL
- MIC A. baumannii imipenem-resistant ([8]; imipenem-resistant): 32 µg/mL (≈ 32.9 µM)
- MIC S. pneumoniae ATCC49619 ([9]; ATCC49619): <0.03125 µg/mL
- MIC S. pneumoniae erm B + mef A genotype ([9]; erm B + mef A genotype): >32 µg/mL
- MIC S. pneumoniae erm B + tet(M, O) genotype ([9]; erm B + tet(M, O) genotype): <0.03125 µg/mL
- MIC H. influenzae ATCC49247 ([10]; ATCC49247): 4 µg/mL (≈ 4.11 µM)
- MIC H. influenzae erythro > 4, azithro 1 ([10]; erythro > 4, azithro 1): 4 µg/mL (≈ 4.11 µM)

SMILES: CC[C@H]1OC(=O)[C@H](C)C(=O)[C@H](C)[C@@H](O[C@@H]2OC(CNC(=O)c3ccccn3)CC(N(C)C)C2O)[C@](C)(OC)C[C@@H](C)CN[C@H](C)[C@H]2N(CCCCn3cc(-c4cccc(N)c4)nn3)C(=O)O[C@]12C (stereo partly shown) [FSM-21887]
- MIC [2, 11]: 0.5 µg/mL (≈ 0.527 µM)
- MIC [2, 12]: > 32 µg/mL
- MIC [3, 13]: 16 µg/mL (≈ 16.9 µM)
- MIC ([3]; read-out: MIC E. coli CTX-M-14, CTX-M-14): > 32 µg/mL
- MIC [3, 14]: 32 µg/mL (≈ 33.7 µM)
- MIC ([3]; read-out: MIC E. coli TEM-1, TEM-1): 16 µg/mL (≈ 16.9 µM)
- MIC [4, 15]: 8 µg/mL (≈ 8.44 µM)
- MIC [4, 16]: > 32 µg/mL
- MIC [4, 17]: > 32 µg/mL
- MIC [4, 18]: > 32 µg/mL
- MIC [4, 19]: > 32 µg/mL
- MIC [5, 20]: 8 µg/mL (≈ 8.44 µM)
- MIC [5, 21]: > 32 µg/mL
- MIC ([5]; SHV-12, read-out: MIC K. pneumoniae SHV-12): > 32 µg/mL
- MIC ([5]; TEM-10, read-out: MIC K. pneumoniae TEM-10): 16 µg/mL (≈ 16.9 µM)
- MIC [6, 22]: > 32 µg/mL
- MIC ([6]; read-out: MIC P. aeruginosa HPA101-1477): > 32 µg/mL
- MIC [7, 23]: ≤ 0.0312 µg/mL
- MIC [7, 24]: 1 µg/mL (≈ 1.05 µM)
- MIC [8, 25]: 32 µg/mL (≈ 33.7 µM)
- MIC ([8]; IMP-4, read-out: MIC A. baumannii IMP-4): > 32 µg/mL
- MIC ([8]; chromosomal class C, read-out: MIC A. baumannii chromosomal class C): 32 µg/mL (≈ 33.7 µM)
- MIC [8, 26]: 32 µg/mL (≈ 33.7 µM)
- MIC [9, 27]: ≤ 0.0312 µg/mL
- MIC [9, 28]: 1 µg/mL
- MIC [9, 29]: ≤ 0.0312 µg/mL
- MIC [9, 30]: 0.5 µg/mL (≈ 0.527 µM)
- MIC [9, 31]: 0.0625 µg/mL (≈ 0.0659 µM)
- MIC [10, 32]: 2 µg/mL (≈ 2.11 µM)
- MIC [10, 33]: 2 µg/mL (≈ 2.11 µM)
